Assay results published in patent publication US20150289512A1, “METHOD FOR PROMOTING PLANT GROWTH” (SUMITOMO CHEMICAL COMPANY, LIMITED, priority 2012, published 2015).

Tests used:
[1] = tested on: Nicotiana benthamiana; assay: Test Example 5: growth promotion under low-temperature stress by hydroponics of Nicotiana benthamiana, 1 ppm; format: in vivo; details: 1 ppm in medium, low-temperature stress 7 days at 1.5±1.0° C., green leaf area 3 days later, equation (1)
Procedure, shortened: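 Seeds were grown in half-strength Murashige–Skoog medium (pH 5.8) containing 1 ppm compound for 7 days at 22 °C, then chilled 7 days at 1.5±1.0 °C and recovered 3 days at 22 °C. Green leaf area was imaged. Relative leaf area = 100×(treated − untreated)/(unstressed untreated − stressed untreated).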

[2] = tested on: Rice (variety: Nipponbare); assay: Test Example 2: promotion of root growth by hydroponics of rice, 1 ppm; format: in vivo; details: Oryza sativa, hydroponic solution containing the test compound at 1 ppm, average of 4 or 5 individuals, read-out: Relative value of length of seminal root (%-untreated control plot)
Procedure, shortened: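 Surface-sterilized Nipponbare seeds germinated 3 days in dark at 28° C in ¼ Hoagland solution with compound at 1 ppm (DMSO 1/10,000; DMSO-only control), then grown hydroponically 3 days at 26° C, 4,000 lux, 16 h day. Seminal root length averaged over 4–5 plants.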

## COC(=O)c1nc2cc(C(F)(F)F)ccc2o1 [Compound 17, methyl 5-trifluoromethylbenzoxazole-2-carboxylate]
[1]
  relative leaf area (% of untreated control) at 1 ppm: ≥ 5%
[2]
  change in vivo at 1 ppm: > 5%

## COC(=O)c1cc2ccccc2o1 [Compound 1]
[2]
  change in vivo at 1 ppm: > 5%

## O=C(NCc1ccccc1)c1cc2cc(C(F)(F)F)ccc2o1 [Compound 54]
[2]
  change in vivo at 1 ppm: > 5%

## COC(=O)c1oc2ccc(C(F)(F)F)cc2c1O [Compound 50]
[2]
  change in vivo at 1 ppm: > 5%

## O=C(O)c1cc2c(C(F)(F)F)cccc2o1 [Compound 43]
[2]
  change in vivo at 1 ppm: > 5%

## COC(=O)c1oc2ccccc2c1C(F)(F)F [Compound 83]
[1]
  relative leaf area (% of untreated control) at 1 ppm: ≥ 5%
[2]
  change in vivo at 1 ppm: > 5%

## O=C(NCc1ccccc1)c1oc2ccc(C(F)(F)F)cc2c1C(F)(F)F [Compound 77]
[1]
  relative leaf area (% of untreated control) at 1 ppm: ≥ 5%
[2]
  change in vivo at 1 ppm: > 5%

## O=C(Nc1ccccc1)c1cc2cc(C(F)(F)F)ccc2o1 [Compound 53]
[1]
  relative leaf area (% of untreated control) at 1 ppm: ≥ 5%
[2]
  change in vivo at 1 ppm: > 5%

## NC(=O)c1oc2ccccc2c1C(F)(F)F [Compound 85]
[2]
  change in vivo at 1 ppm: > 5%

## COC(=O)c1oc2ccccc2c1C [Compound 37]
[1]
  relative leaf area (% of untreated control) at 1 ppm: ≥ 5%
[2]
  change in vivo at 1 ppm: > 5%

## COC(=O)c1oc2ccc(C(F)(F)F)cc2c1N(C)C [Compound 62]
[2]
  change in vivo at 1 ppm: > 5%

## CNC(=O)c1cc2cc(C(F)(F)F)ccc2o1 [Compound 52]
[1]
  relative leaf area (% of untreated control) at 1 ppm: ≥ 5%
[2]
  change in vivo at 1 ppm: > 5%

## CCOC(=O)c1oc2cccc(O)c2c1C [Compound 80]
[2]
  change in vivo at 1 ppm: > 5%

## O=C(O)c1oc2ccc(C(F)(F)F)cc2c1C(F)(F)F [Compound 69]
[1]
  relative leaf area (% of untreated control) at 1 ppm: ≥ 5%
[2]
  change in vivo at 1 ppm: > 5%

## NC(=O)c1cc2cc(C(F)(F)F)ccc2o1 [Compound 51]
[1]
  relative leaf area (% of untreated control) at 1 ppm: ≥ 5%
[2]
  change in vivo at 1 ppm: > 5%

## COC(=O)c1oc2ccccc2c1N(C(C)=O)C(C)=O [Compound 41]
[2]
  change in vivo at 1 ppm: > 5%

## Cc1c(C(=O)O)oc2ccc(C(F)(F)F)cc12 [Compound 34]
[1]
  relative leaf area (% of untreated control) at 1 ppm: ≥ 5%
[2]
  change in vivo at 1 ppm: > 5%

## Cc1c(C(=O)O)oc2ccccc12 [Compound 36]
[1]
  relative leaf area (% of untreated control) at 1 ppm: ≥ 5%
[2]
  change in vivo at 1 ppm: > 5%

## COC(=O)c1oc2ccc(C(F)(F)F)cc2c1C(F)(F)F [Compound 70]
[1]
  relative leaf area (% of untreated control) at 1 ppm: ≥ 5%
[2]
  change in vivo at 1 ppm: > 5%

## COC(=O)c1oc2ccc(C(F)(F)F)cc2c1NC(C)=O [Compound 63]
[2]
  change in vivo at 1 ppm: > 5%

## COC(=O)c1oc2ccccc2c1NC(C)=O [Compound 40]
[2]
  change in vivo at 1 ppm: > 5%

## O=C(O)c1nc2c(F)cc(F)cc2s1 [Compound 86]
[1]
  relative leaf area (% of untreated control) at 1 ppm: ≥ 5%
[2]
  change in vivo at 1 ppm: > 5%

## O=C(Oc1ccccc1)c1cc2cc(C(F)(F)F)ccc2o1 [Compound 55]
[1]
  relative leaf area (% of untreated control) at 1 ppm: ≥ 5%
[2]
  change in vivo at 1 ppm: > 5%

## COC(=O)c1oc2ccc(C(F)(F)F)cc2c1NC(=O)C(F)(F)F [Compound 65]
[1]
  relative leaf area (% of untreated control) at 1 ppm: ≥ 5%
[2]
  change in vivo at 1 ppm: > 5%

## COC(=O)c1oc2ccc(C(F)(F)F)cc2c1NS(C)(=O)=O [Compound 67]
[2]
  change in vivo at 1 ppm: > 5%

## COC(=O)c1oc2ccc(C(F)(F)F)cc2c1NS(=O)(=O)c1ccccc1 [Compound 68]
[1]
  relative leaf area (% of untreated control) at 1 ppm: ≥ 5%
[2]
  change in vivo at 1 ppm: > 5%

## COC(=O)c1oc2ccc(C(F)(F)F)cc2c1C [Compound 33]
[2]
  change in vivo at 1 ppm: > 5%

## O=C(OCc1ccccc1)c1oc2ccc(C(F)(F)F)cc2c1C(F)(F)F [Compound 73]
[2]
  change in vivo at 1 ppm: > 5%

## O=C(O)c1oc2ccccc2c1C(F)(F)F [Compound 82]
[1]
  relative leaf area (% of untreated control) at 1 ppm: ≥ 5%
[2]
  change in vivo at 1 ppm: > 5%

## NC(=O)c1oc2ccc(C(F)(F)F)cc2c1C(F)(F)F [Compound 74]
[1]
  relative leaf area (% of untreated control) at 1 ppm: ≥ 5%
[2]
  change in vivo at 1 ppm: > 5%

## COC(=O)c1cc2c(C(F)(F)F)cccc2o1 [Compound 45]
[2]
  change in vivo at 1 ppm: > 5%

## O=C(Nc1ccccc1)c1oc2ccc(C(F)(F)F)cc2c1C(F)(F)F [Compound 76]
[2]
  change in vivo at 1 ppm: > 5%

## COC(=O)c1oc2ccc(C(F)(F)F)cc2c1N(C(C)=O)C(C)=O [Compound 64]
[1]
  relative leaf area (% of untreated control) at 1 ppm: ≥ 5%

## CCOC(=O)c1cc2c(C(F)(F)F)cccc2o1 [Compound 44]
[2]
  change in vivo at 1 ppm: > 5%

## O=C(OCc1ccccc1)c1cc2cc(C(F)(F)F)ccc2o1 [Compound 56]
[1]
  relative leaf area (% of untreated control) at 1 ppm: ≥ 5%
[2]
  change in vivo at 1 ppm: > 5%

## CNC(=O)c1oc2ccc(C(F)(F)F)cc2c1C(F)(F)F [Compound 75]
[2]
  change in vivo at 1 ppm: > 5%

## COC(=O)c1cc2cc(C(F)(F)F)ccc2o1 [Compound 3, methyl 5-(trifluoromethyl)benzofuran-2-carboxylate]
[2]
  change in vivo at 1 ppm: > 5%
